Measured values as given in PubChem BioAssay (NCI).
Where “and” joins values, the source holds several entries; their conditions need not be identical. Equal entries are not always repeated.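 Assay format: 96-well plates, 48-hour exposure. The concentration for 50% growth inhibition is given as GI50. TGI: concentration producing complete growth inhibition.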

Columns and labels:
Assay in all cases: NCI anticancer screen, dose series, 48 h
BT-549 breast = system: BT-549 breast
IGROV1 ovarian = system: IGROV1 ovarian
MCF7 breast = system: MCF7 breast
NCI-H23 lung = system: NCI-H23 lung
OVCAR-4 ovarian = system: OVCAR-4 ovarian
SK-MEL-5 melanoma = system: SK-MEL-5 melanoma
T-47D breast = system: T-47D breast
NCI-H522 lung = system: NCI-H522 lung

| Structure (SMILES) | GI50 (BT-549 breast) [µM] | TGI (BT-549 breast) [µM] | GI50 (IGROV1 ovarian) [µM] | TGI (IGROV1 ovarian) [µM] | GI50 (MCF7 breast) | TGI (MCF7 breast) | GI50 (NCI-H23 lung) [µM] | TGI (NCI-H23 lung) [µM] | GI50 (OVCAR-4 ovarian) [µM] | TGI (OVCAR-4 ovarian) [µM] | GI50 (SK-MEL-5 melanoma) | TGI (SK-MEL-5 melanoma) | GI50 (T-47D breast) | TGI (T-47D breast) | TGI (NCI-H522 lung) [µM] | GI50 (NCI-H522 lung) |
| --- | --- | --- | --- | --- | --- | --- | --- | --- | --- | --- | --- | --- | --- | --- | --- | --- |
| O=C(NC1CCN(Cc2ccccc2)CC1)c1cc(-c2cccnc2)nc2ccc(Cl)cc12 | 24.8 | > 100 | 16.1 | 81.8 | 4.78 µM | > 100 µM | 18 | > 100 | 9.01 | 68.5 | 3.91 µM | > 100 µM | 3.7 µM | 53.1 µM | – | – |
| COC(=O)c1cc(-c2ccc3ccccc3c2)[nH]c(=O)c1C#N | – | > 100 | – | > 100 | – | > 100 µM | – | > 100 | – | > 100 | – | > 100 µM | – | > 100 µM | > 100 | – |
| Cc1nc2ccccn2c1NC(=O)NN1C(=O)CSC1c1ccc(Cl)cc1 (stereo unspecified) | > 100 | > 100 | > 100 | > 100 | > 100 µM | > 100 µM | – | – | > 100 | > 100 | > 100 µM | > 100 µM | > 100 µM | > 100 µM | > 100 | > 100 µM |
| COc1ccc(-c2nn(-c3cccc(Cl)c3)cc2/C=C2\NC(=S)N(c3ccc(Cl)cc3)C2=O)cc1 | 4.46 | 11.6 | 4.99 | 10.1 | 5.6 µM | > 25 µM | 3.78 | 9.23 | 3.54 | 7.45 | 4.22 µM | 11 µM | 3.61 µM | 9.7 µM | 6.21 | 1.98 µM |
| O=C1Cc2c(-c3ccccc3)cc(-c3ccccc3)nc2-c2ccccc2N1 | – | 22.5 | – | 68.5 | – | – | – | 36.6 | – | – | – | 7.58 µM | – | 38.4 µM | 30.2 | – |
| Cc1cc2c(cc1Cl)SC(N(c1ccccc1Cl)S(=O)(=O)c1ccc(Br)s1)=NS2(=O)=O | – | – | 19.8 | 89.8 | 8.88 µM | 28.8 µM | 19.9 | 56.4 | 18.1 | 76.8 | 13.8 µM | 26.7 µM | 4.95 µM | 23 µM | 31.7 | 13.5 µM |
| CN(C)c1ccc(/C=C/C(=O)c2ccc(Nc3nc(Nc4ccc(F)cc4)nc(Nc4ccc(F)cc4)n3)cc2)cc1 | 13.5 | 43.6 | 16.7 | 45 | 17.6 µM | > 100 µM | 19.6 | 68.6 | 15 | 53.4 | 7.65 µM | 23.9 µM | 6.73 µM | 51.7 µM | 58.4 | 16.2 µM |
| O=CC(OC(=O)c1ccccc1)C(OC(=O)c1ccccc1)C(COC(c1ccccc1)(c1ccccc1)c1ccccc1)OC(=O)c1ccccc1 (stereo unspecified) | 23.4 | > 100 | 12.4 | 37.7 | 6.38 µM | 23.7 µM | 15.4 | 34.6 | 17.5 | 47.1 | 15.4 µM | 30.3 µM | 4.65 µM | 22.7 µM | 18.7 | 4.72 µM |
| Clc1ccc(-c2cc(-c3ccccc3)nc(N3CCN(CCCNc4ccnc5cc(Cl)ccc45)CC3)n2)cc1 | 1.68 | 3.23 | 1.45 | 2.89 | 1.63 µM | 3.81 µM | – | – | 1.16 | 2.61 | 1.67 µM | 3.06 µM | 1.14 µM | 3.38 µM | 3.54 | 1.78 µM |
| Cc1cc(S(=O)(=O)/N=C(\N)Nc2cccc(O)c2)c(SCc2ccccc2)cc1Cl | 19 | 39.7 | 17.5 | 64.8 | 11.5 µM | 78.9 µM | – | – | 12.1 | 45.1 | 12.1 µM | 29.6 µM | 19.4 µM | 75.7 µM | 41.8 | 13.9 µM |
| C[C@@H]1CC[C@H]2[C@@H](C)C(O)O[C@@H]3O[C@]4(C)CC[C@@H]1[C@]32OO4 (stereo partly specified) | 0.721 | 45.4 | 1.13 | 5.23 | 1.66 µM | 20.4 µM | 0.442 | 10.7 | 2.43 | > 56.7 | 0.53 µM | 16.6 µM | 0.285 µM | – | 3.29 | 0.329 µM |
| CCOC(=O)/C(=C/CC/C(C)=C/CC/C(C)=C/CCc1ccoc1)CC(=O)N1CCCCC1 | 4.03 | 17.2 | 14 | 47.2 | 2.11 µM | 5.92 µM | 3.12 | 15.1 | – | – | 1.66 µM | 3.09 µM | 2.37 µM | 8.65 µM | 9.2 | 2.75 µM |
| Cc1cccc2c(C3=C(c4cn(C)c5ccccc45)C(=O)NC3=O)cn(C)c12 | 12.7 | > 25 | 25 | > 25 | 9.03 µM | > 25 µM | > 25 | > 25 | 6.64 | > 23.1 | > 22.2 µM | > 25 µM | > 20 µM | > 25 µM | > 25 | > 17 µM |
| C[C@@H](O)[C@@H](C)Oc1nc(Nc2ccc(S(=N)(=O)C3CC3)cc2)ncc1C(F)(F)F (stereo partly specified) | 0.0274 | 0.182 | 0.0291 | 25.2 | 0.0169 µM | 29.7 µM | 0.0322 | 0.318 | 0.0442 | 26.9 | 0.0266 µM | 0.108 µM | 0.0386 µM | 6.62 µM | 0.81 | 0.0328 µM |
| COc1ccc(C(=O)/C=C/c2sc(Cl)nc2Cl)cc1 | 0.332 | 1.7 | 0.368 | 1.91 | 1.75 µM | 4 µM | 0.973 | 3.39 | 7.28 | 20.2 | 1.53 µM | 4.15 µM | 2.93 µM | 9.23 µM | 4.85 | 0.452 µM |
| C[C@@H](C1CC[C@H]2[C@@H]3[C@@H]4O[C@@H]4[C@@]4(O)CC=CC(=O)[C@]4(C)[C@H]3C[C@H](O)[C@]12C)[C@H]1C[C@]2(C)O[C@]2(C)C(=O)O1 (stereo partly specified) | – | – | – | > 100 | – | > 100 µM | – | > 100 | – | > 100 | – | > 100 µM | – | > 100 µM | > 100 | – |
| N#CCc1c(F)c(F)c(F)c(F)c1F | – | > 100 | – | > 100 | – | > 100 µM | – | > 100 | – | – | – | > 100 µM | – | > 100 µM | > 100 | – |
| Oc1ccc2ccccc2c1CCc1c(O)ccc2ccccc12 | – | – | – | – | – | 26.3 µM | – | 26.1 | – | – | – | 25.7 µM | – | 12.5 µM | – | – |
| OCC#CCOCC#Cc1ccccc1C#CCOCC#CCO | 34.2 | 93.2 | > 100 | > 100 | 40.7 µM | > 100 µM | 36 | > 100 | – | – | 39.8 µM | > 100 µM | – | – | > 100 | 66.5 µM |
| Cc1ccc2c(c1)[n+](=O)c(C(=O)c1cccs1)c(C(F)(F)F)n2[O-] | 0.603 | 1.97 | – | 0.332 | 0.875 µM and 0.456 µM | 3.79 µM and 21.5 µM | 0.854 | 2.59 | – | – | 0.648 µM and 0.177 µM | 1.57 µM and 0.423 µM | 1.55 µM and 0.183 µM | 9.38 µM and 7.9 µM | – | 1.37 µM and 0.23 µM |
| Cc1c2cnccc2c(C)c2c1c1cc(O)ccc1n2C(C)C | 1.11 | 2.73 | – | – | 1.37 µM | 4.82 µM | 0.721 | 3.83 | 1.31 | 7.38 | 1.35 µM | 3 µM | 1.98 µM | 6.27 µM | 2.54 | 0.475 µM |
| Nc1nc(N)c2c(n1)NC(c1sc(Cl)nc1Cl)CC(c1ccccc1)=N2 (stereo unspecified) | 3.93 | 16.1 | 7.08 | 23.4 | 3.56 µM | 20.4 µM | 8.23 | 23.3 | – | – | 3.69 µM | 13.9 µM | 3.35 µM | 22.1 µM | 14.3 | 3.27 µM |
| COc1ccccc1-n1cnc(N)c1C(=O)c1cc(OC)c(OC)c(OC)c1 | 3.55 | 66.2 | 3.88 | > 100 | 2.49 µM | > 100 µM | 9.5 | > 100 | 6.5 | > 100 | 3.13 µM | > 100 µM | – | – | > 100 | 1.94 µM |
| CC/C=C\C[C@H]1C/C=C2/C(=O)C=C[C@H]2C/C=C\CCCC(=O)O1 | 2.52 | 9.29 | 2.66 | 8.99 | 2.21 µM | 12.4 µM | 2.15 | 9.92 | 2.81 | 9.73 | 1.74 µM | 7.27 µM | – | – | 7.21 | 1.98 µM |
| COc1ccc(-n2cc(-c3cc(OC)c(OC)c(OC)c3)nc2SCc2ccc(Cl)cc2)cc1OC | > 100 | > 100 | – | – | 92.6 µM | > 100 µM | > 100 | > 100 | 71.9 | > 100 | 41.7 µM | > 100 µM | 15.1 µM | > 100 µM | > 100 | 41.2 µM |
